Entries after “also recorded” stand apart in the source; their conditions may differ. Like-named read-outs stand apart in the source and are kept apart here. One block for each compound: values may come before it.
What was measured:
Notch target genes = assay: RT-qPCR of Notch target genes in Notch/NACK-dependent cells; assay type: cell-based, human; settings: for down regulation of Notch target genes (q-PCR profile): compared to Z271-0326, FIGS. 13A-13D
Description: To assess the effect of NACK inhibitor on Notch target gene transcription, Notch/NACK-dependent cell lines were treated with NACK inhibitors. The cells were also treated with DAPT as a positive control. DMSO treated cells served as a vehicle control for comparison. Gene expression was normalized to HPRT, and TBP served as a negative control to validate normalization.
Reverse transcription and qPCR analysis were performed as described previously (See Weaver et al., Cancer Research 74, 4741-4751 (2014)). Gene expression was normalized to the TATA-binding protein (“TBP”) gene. As a control, hypoxanthine phosphoribosyltransferase 1 (“HPRT”) gene expression was also monitored.

HC11 cells = assay: Colony formation assay in HC11 cells; assay type: cell-based, mouse; settings: Notch/NACK independent cell line; FIG. 5B
Description: (§1) A cell based colony formation assay was used in these experiments. Normal mouse mammary epithelia HC11 cells have little or no endogenous NACK expression, and NACK knockdown had no effect on the growth of HC11 cells (FIG. 5A, lower panel). […] Knockdown of NACK was confirmed by western blot and qPCR (FIGS. 1D and 1E). […] Therefore, compounds that affect OE33 colony formation but not HC11 were desired. In order to screen the compounds, cells were treated with test compounds every other day.
(§2) Colony formation assay was utilized to determine the effect of small molecule inhibitors on cell proliferation. In general, different cell lines (NACK dependent or independent) will be seeded in 6-well plates at a density of 2000 cells per well and allowed to attach overnight. Inhibitor treatment commenced 24 hours post seeding, and the media containing inhibitor was changed every 48 hours thereafter. After 168 hours, colonies were be stained with Crystal Violet (Millipore) and counted.

OE33 cell line = assay: Colony formation assay in OE33 cells; assay type: cell-based, human; settings: for OE33 colony formation: cells treated every other day, FIGS. 5B, 5C; for EC50: Homo sapiens, read-out: EC50 colony formation titration assay
Description: as §1, §2

OE33 spheres = assay: Tumor sphere formation assay in OE33; assay type: cell-based, human; settings: OE33; FIG. 7A
Description: In order to assess the effect of hit to lead compounds on the proliferation of stem cell like population of Notch/NACK dependent cells, the primary tumor spheres were treated with NACK inhibitor and allow the cells to be propagated as secondary cultures. To obtain tumor spheres, cells were cultured in DMEM/F12 with 2% B-27 serum-free supplement (17604-044; Invitrogen), 20 ng/mL epidermal growth factor (EGF; PHG0311L; Invitrogen), and 20 ng/mL basic fibroblastic growth factor (bFGF; PHG0266; Invitrogen) for 14 days. Resulting tumor spheres were examined and counted under the microscope. Furthermore, the tumor spheres were collected for further RT-qPCR analysis to test the effect of hit to lead compounds on the stem like target genes.

[1] = biological target: T1, NACK binding to the Notch transcription complex (Mus musculus, UniProt Q571I4); assay: CSL-DNA affinity precipitation (CSL-DAP) assay; assay type: cell-based; settings: 293T cells transfected with N1ICD, Maml1, NACK; 2 hours treatment; FIG. 6A
T1 construct: expressed in transfected cells; host or cells: 293T
T1 sequence (Q571I4 1-1373): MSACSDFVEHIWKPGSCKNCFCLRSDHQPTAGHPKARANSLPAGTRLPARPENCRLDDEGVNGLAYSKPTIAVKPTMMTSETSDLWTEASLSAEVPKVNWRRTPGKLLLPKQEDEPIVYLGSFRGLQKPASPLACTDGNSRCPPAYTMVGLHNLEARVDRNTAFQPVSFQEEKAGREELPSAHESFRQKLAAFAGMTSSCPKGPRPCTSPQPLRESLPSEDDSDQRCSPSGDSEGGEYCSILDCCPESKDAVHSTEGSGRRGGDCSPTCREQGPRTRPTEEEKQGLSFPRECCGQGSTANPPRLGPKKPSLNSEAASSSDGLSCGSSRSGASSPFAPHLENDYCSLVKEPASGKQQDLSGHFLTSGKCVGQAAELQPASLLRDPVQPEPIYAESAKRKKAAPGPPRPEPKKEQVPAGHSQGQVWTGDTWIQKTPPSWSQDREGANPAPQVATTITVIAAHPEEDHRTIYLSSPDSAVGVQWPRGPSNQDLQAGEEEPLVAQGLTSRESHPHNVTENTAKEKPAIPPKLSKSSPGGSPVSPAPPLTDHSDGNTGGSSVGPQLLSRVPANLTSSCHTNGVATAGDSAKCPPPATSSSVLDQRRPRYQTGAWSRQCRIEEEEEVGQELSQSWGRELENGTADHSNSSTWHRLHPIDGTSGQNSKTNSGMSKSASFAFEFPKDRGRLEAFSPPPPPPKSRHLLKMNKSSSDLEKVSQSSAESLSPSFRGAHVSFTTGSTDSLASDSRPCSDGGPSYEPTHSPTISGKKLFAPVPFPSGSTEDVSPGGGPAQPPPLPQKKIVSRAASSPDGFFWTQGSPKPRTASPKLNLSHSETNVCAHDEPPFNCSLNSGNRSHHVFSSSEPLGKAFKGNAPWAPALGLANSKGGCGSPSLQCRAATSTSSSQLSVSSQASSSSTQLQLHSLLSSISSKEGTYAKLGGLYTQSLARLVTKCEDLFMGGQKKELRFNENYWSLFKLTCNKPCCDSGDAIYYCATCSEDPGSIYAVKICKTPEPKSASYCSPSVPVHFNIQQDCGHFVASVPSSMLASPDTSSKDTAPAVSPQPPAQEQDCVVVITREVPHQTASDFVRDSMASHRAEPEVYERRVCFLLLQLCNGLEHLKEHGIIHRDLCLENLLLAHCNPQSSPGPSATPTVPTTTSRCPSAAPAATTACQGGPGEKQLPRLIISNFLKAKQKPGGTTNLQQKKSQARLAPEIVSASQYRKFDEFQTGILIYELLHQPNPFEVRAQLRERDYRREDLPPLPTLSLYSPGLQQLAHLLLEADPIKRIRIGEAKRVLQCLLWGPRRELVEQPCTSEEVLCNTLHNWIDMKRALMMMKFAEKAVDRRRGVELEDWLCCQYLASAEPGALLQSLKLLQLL
Description: To determine the specificity of hit-to-lead compounds targeting NACK activity, it was evaluated whether iNACK can block NACK binding to the Notch complex by conducting CSL-DNA affinity precipitation (CSL-DAP) assay. […] In the CSL-DAP assay, 293T cells were co-transfected with N1^ICD, Maml1 and NACK. Transfections were performed using LipoJet transfection reagent (SL100468, SignaGen Laboratories) according to the manufacturer recommended protocol. After two days of transfection, cells were treated with compounds for 2 hours prior collecting the cell lysate. Cell lysates were incubated with DNA streptavidin beads. Proteins that bound to the beads were analyzed by Western blot.
Western blot was performed as described previously (See Weaver et al., Cancer Research 74, 4741-4751 (2014)). Primary antibodies were α-NACK (1:1,000; against aa209-287 of NACK and affinity purified), α-CSL (1:1,000; generated against full-length CSL and affinity purified), α-Maml1 (1:5,000; Cell Signaling Technology), α-cleaved-Notch1 (1:1,000; Cell Signaling Technology).

NACK = biological target: T2, NACK (Mus musculus, UniProt Q571I4); assay: Surface plasmon resonance (SPR) binding to GST tagged NACK
T2 sequence (Q571I4 1-1373): T1 sequence (Q571I4 1-1373)
Description: The interaction between inhibitor Z271-0326 and target NACK was characterized using surface plasmon resonance (SPR). For this purpose, GST tagged NACK was captured by a GST antibody that was previously immobilized onto the surface of the chip through standard amide coupling. The dissociation constants associated with binding of the compounds to NACK was determined using the equilibrium approach, which consists of plotting the equilibrium response (Req) as a function of concentration of the compound and fitting the data to a 1:1 binding model.
A GST capture kit (GE Healthcare) were utilized to covalently immobilize an anti-GST antibody, provided in the kit, to the sensor chip surface (CM5 chip, GE Healthcare) by following the manufacturer's instructions. Capture were performed by injecting GST-NACK (1 μg/μL) over the immobilized anti-GST antibody in Hepes buffer (10 mM Hepes, pH 7.5, 150 mM NaCl, 3 mM EDTA, 0.0005% NP-40) for 7 min at 10 μL/min. A reference flow cell was prepared by capturing GST following the procedure described above. […] Experiments were performed on a Biacore T200 instrument (GE Healthcare) at 25° C. Small molecule inhibitors binding to NACK were performed in 50 mM Tris buffer, pH 7.5, containing 150 mM NaCl, 10 mM MgCl2 and 5% DMSO (running buffer). The SPR signal arising from the sample was corrected for its respective control containing DMSO. Data visualization and analysis was performed using Biacore T200 software (GE Healthcare) and Origin 8.0 (OriginLab).

SMILES: CC(=O)Nc1ccc(S(=O)(=O)N2CCC(c3ccn4ncc(C(=O)N5CCCC5)c4c3)CC2)cc1 [Compound 7H, N-[4-({4-[3-(pyrrolidine-1-carbonyl)pyrazolo[1,5-a]pyridin-5-yl]piperidin-1-yl}sulfonyl)phenyl]acetamide]
- down regulation of Notch target genes (q-PCR profile) (Notch target genes): performed the best in down regulating Notch target genes, even better than Z271-0326

SMILES: CCN(CC)C(=O)c1cnn2ccc(C3CCN(S(=O)(=O)c4ccc(NC(=O)OC)cc4)CC3)cc12 [Compound 7C, methyl N-[4-({4-[3-(diethylcarbamoyl)pyrazolo[1,5-a]pyridin-5-yl]piperidinyl}sulfonyl)phenyl]carbamate]
- expression of oncogenes cMYC, CCND1, HES1 (Q-PCR) (Notch target genes; with respect to DMSO and Z271-0326, FIG. 16): downregulate oncogenes cMYC, CCND1, and HES1

SMILES: N#Cc1cccc(NC(=O)N2CCC(c3ccn4ncc(C(=O)N5CCCCC5)c4c3)CC2)c1 [Compound Z270-0137]
- HC11 colony formation / viability (HC11 cells): but not HC11 cell
- OE33 colony formation (OE33 cell line): effectively inhibit OE33 colony formation

- EC50 (OE33 cell line; OE33, OE33 cell line, FIG. 18): 0.33 µM
SMILES: CC(=O)Nc1ccc(S(=O)(=O)N2CCC(c3ccn4ncc(C(=O)N5CCC5)c4c3)CC2)cc1 [Compound 71C, N-[4-({4-[3-(azetidine-1-carbonyl)pyrazolo[1,5-a]pyridin-5-yl]piperidin-1-yl}sulfonyl)phenyl]acetamide]

- EC50 (OE33 cell line; OE33, estimated, FIG. 6C): 3.74 µM
SMILES: CC1CCN(C(=O)c2cnn3ccc(C4CCN(S(=O)(=O)c5ccccc5)CC4)cc23)CC1 [Compound Z271-0191]
- HC11 colony formation / viability (HC11 cells): but not HC11 cell
- OE33 colony formation (OE33 cell line): effectively inhibit OE33 colony formation
- mRNA levels of Notch target genes Hes1 and Notch3 (Notch target genes; OE33, FIG. 6B): decrease the mRNA levels of Notch target genes Hes1 and Notch3
- secondary sphere formation (OE33 spheres): less effective compared to Z271-0326
- inhibition of NACK binding to the Notch transcription complex [1]: dramatically inhibit NACK binding to the NOTCH transcription complex

SMILES: CC(=O)Nc1ccc(S(=O)(=O)N2CCC(c3ccn4ncc(C(=O)N5CCCCC5)c4c3)CC2)cc1 [Compound 7M, N-[4-({4-[3-(piperidine-1-carbonyl)pyrazolo[1,5-a]pyridin-5-yl]piperidin-1-yl}sulfonyl)phenyl]acetamide]
- down regulation of Notch target genes (q-PCR profile) (Notch target genes): can also down regulate Notch target genes, but not as good as compound 7H

- Kd (NACK; SPR, FIG. 4C, read-out: binding constant): ~1.5 µM
- Kd (NACK; equilibrium approach, 1:1 binding model, 25° C., FIG. 10A, read-out: KD): 1.5 ± 0.5 µM
SMILES: Nc1ncnc2c1ncn2[C@@H]1O[C@H](COP(=O)(O)OP(=O)(O)NP(=O)(O)O)[C@@H](O)[C@H]1O [AMP-PNP]

SMILES: O=C(c1cnn2ccc(C3CCN(S(=O)(=O)Cc4ccccc4)CC3)cc12)N1CCCCC1 [Compound Z271-0132]
- selectivity between OE33 and HC11 cell lines (OE33 cell line; colony formation): displays no selectivity between OE33 and HC11 cell lines
- inhibition of NACK binding to the Notch transcription complex [1]: dramatically inhibit NACK binding to the NOTCH transcription complex; also recorded: blocks binding of NACK to the ternary complex

- EC50 (OE33 cell line; OE33, OE33 cell line, FIG. 18): 0.608 µM
SMILES: CC(C)(C)OC(=O)Nc1ccc(S(=O)(=O)N2CCC(c3ccn4ncc(C(=O)N5CCCC5)c4c3)CC2)cc1 [Compound 71B, tert-butyl N-[4-({4-[3-(pyrrolidine-1-carbonyl)pyrazolo[1,5-a]pyridin-5-yl]piperidin-1-yl}sulfonyl)phenyl]carbamate]

Reference: patent US12077508B2, “Inhibitors of the Notch transcriptional activation complex kinase (“NACK”) and methods for use of the same” (UNIVERSITY OF MIAMI, priority 2018, dated 2024)
